Active and inactive are the calls of the source. The rule behind the calls is not given here.
Experiments:
[1] = test system: SH-SY5Y; assay: Neuroprotective effect in MPP+-induced cytotoxicity in human SH-SY5Y cells assessed as increase in neutral red dye uptake at 1 to 10 uM preincubated with 500 uM MPP+ for 30 mins followed by compound treatment for 24 hrs; type: functional, cell-based; conditions: dose 1-10 µM, time 24.5 hrs
[2] = test system: SH-SY5Y; assay: Cytotoxicity against human SH-SY5Y cells assessed as decrease in neutral red dye uptake upto 50 uM incubated for 24 hrs; type: toxicity, cell-based
[3] = test system: SH-SY5Y; assay: Cytotoxicity against human SH-SY5Y cells upto 10 uM incubated for 24 hrs; type: toxicity, cell-based
[4] = test system: SH-SY5Y; assay: Cytotoxicity against human SH-SY5Y cells assessed as decrease in resazurin dye at 50 uM incubated for 24 hrs relative to control; type: toxicity, cell-based; parameters: scale not given: the % may be the effect or the level left
[5] = test system: SH-SY5Y; assay: Cytotoxicity against human SH-SY5Y cells at 5 uM incubated for 24 hrs; type: toxicity, cell-based
[6] = test system: SH-SY5Y; assay: Cytotoxicity against human SH-SY5Y cells assessed as decrease in resazurin dye at 25 uM incubated for 24 hrs relative to control; type: toxicity, cell-based; parameters: scale not given: the % may be the effect or the level left
[7] = test system: SH-SY5Y; assay: Cytotoxicity against human SH-SY5Y cells assessed as decrease in neutral red dye uptake at 10 uM incubated for 24 hrs relative to control; type: toxicity, cell-based; parameters: scale not given: the % may be the effect or the level left
[8] = test system: SH-SY5Y; assay: Neuroprotective effect in MPP+-induced cytotoxicity in human SH-SY5Y cells assessed as increase in neutral red dye uptake at 1 uM preincubated with 500 uM MPP+ for 30 mins followed by compound treatment for 24 hrs (reference value: 83.3 %); type: functional; conditions: time 24.5 hrs
[9] = test system: SH-SY5Y; assay: Neuroprotective effect in MPP+-induced cytotoxicity in human SH-SY5Y cells assessed as increase in neutral red dye uptake at 5 uM preincubated with 500 uM MPP+ for 30 mins followed by compound treatment for 24 hrs (reference value: 83.3 %); type: functional; conditions: time 24.5 hrs
[10] = test system: SH-SY5Y; assay: Neuroprotective effect in Fe3+-induced cytotoxicity in human SH-SY5Y cells assessed as increase in neutral red dye uptake at 1 uM preincubated with 500 uM FeNTA for 30 mins followed by compound treatment for 24 hrs (reference value: 81.4 %); type: functional; conditions: time 24.5 hrs
[11] = test system: SH-SY5Y; assay: Cytotoxicity against human SH-SY5Y cells assessed as decrease in neutral red dye uptake at 50 uM incubated for 24 hrs relative to control; type: toxicity, cell-based; parameters: scale not given: the % may be the effect or the level left
[12] = test system: SH-SY5Y; assay: Neuroprotective effect in MPP+-induced cytotoxicity in human SH-SY5Y cells assessed as increase in neutral red dye uptake at 1 uM preincubated with 1000 uM MPP+ for 30 mins followed by compound treatment for 24 hrs (reference value: 75.8 %); type: functional; conditions: time 24.5 hrs
[13] = test system: SH-SY5Y; assay: Neuroprotective effect in MPP+-induced cytotoxicity in human SH-SY5Y cells assessed as increase in neutral red dye uptake at 2.5 uM preincubated with 1000 uM MPP+ for 30 mins followed by compound treatment for 24 hrs (reference value: 75.8 %); type: functional; conditions: time 24.5 hrs
[14] = test system: SH-SY5Y; assay: Neuroprotective effect in MPP+-induced cytotoxicity in human SH-SY5Y cells assessed as increase in neutral red dye uptake at 2.5 uM preincubated with 500 uM MPP+ for 30 mins followed by compound treatment for 24 hrs (reference value: 83.3 %); type: functional; conditions: time 24.5 hrs
[15] = test system: SH-SY5Y; assay: Neuroprotective effect in MPP+-induced cytotoxicity in human SH-SY5Y cells assessed as increase in neutral red dye uptake at 5 uM preincubated with 1000 uM MPP+ for 30 mins followed by compound treatment for 24 hrs (reference value: 75.8 %); type: functional; conditions: time 24.5 hrs
[16] = test system: SH-SY5Y; assay: Cytotoxicity against human SH-SY5Y cells assessed as decrease in neutral red dye uptake at 25 uM incubated for 24 hrs relative to control; type: toxicity, cell-based; parameters: scale not given: the % may be the effect or the level left
[17] = test system: SH-SY5Y; assay: Cytotoxicity against human SH-SY5Y cells assessed as decrease in resazurin dye upto 50 uM incubated for 24 hrs; type: toxicity, cell-based
[18] = test system: SH-SY5Y; assay: Neuroprotective effect in MPP+-induced cytotoxicity in human SH-SY5Y cells assessed as increase in neutral red dye uptake at 2.5 uM preincubated with 500 uM MPP+ for 30 mins followed by compound treatment for 24 hrs (reference value: 75 %); type: functional; conditions: time 24.5 hrs
[19] = test system: SH-SY5Y; assay: Neuroprotective effect in MPP+-induced cytotoxicity in human SH-SY5Y cells assessed as increase in neutral red dye uptake at 5 uM preincubated with 500 uM MPP+ for 30 mins followed by compound treatment for 24 hrs (reference value: 81.1 %); type: functional; conditions: time 24.5 hrs
[20] = test system: SH-SY5Y; assay: Neuroprotective effect in MPP+-induced cytotoxicity in human SH-SY5Y cells assessed as increase in neutral red dye uptake at 2.5 uM preincubated with 500 uM MPP+ for 30 mins followed by compound treatment for 24 hrs (reference value: 81.1 %); type: functional; conditions: time 24.5 hrs
[21] = test system: SH-SY5Y; assay: Neuroprotective effect in MPP+-induced cytotoxicity in human SH-SY5Y cells assessed as increase in neutral red dye uptake at 1 uM preincubated with 500 uM MPP+ for 30 mins followed by compound treatment for 24 hrs (reference value: 81.1 %); type: functional; conditions: time 24.5 hrs
[22] = test system: SH-SY5Y; assay: Neuroprotective effect in MPP+-induced cytotoxicity in human SH-SY5Y cells assessed as increase in neutral red dye uptake at 1 uM preincubated with 500 uM MPP+ for 30 mins followed by compound treatment for 24 hrs (reference value: 75 %); type: functional; conditions: time 24.5 hrs
[23] = test system: SH-SY5Y; assay: Neuroprotective effect in Fe3+-induced cytotoxicity in human SH-SY5Y cells assessed as increase in neutral red dye uptake at 1 to 10 uM preincubated with 500 to 1000 uM FeNTA for 30 mins followed by compound treatment for 24 hrs; type: functional, cell-based; conditions: dose 1-10 µM, time 24.5 hrs
[24] = test system: SH-SY5Y; assay: Neuroprotective effect in MPP+-induced cytotoxicity in human SH-SY5Y cells assessed as increase in neutral red dye uptake at 2.5 uM preincubated with 500 uM MPP+ for 30 mins followed by compound treatment for 24 hrs (reference value: 83.9 %); type: functional; conditions: time 24.5 hrs
[25] = test system: SH-SY5Y; assay: Neuroprotective effect in MPP+-induced cytotoxicity in human SH-SY5Y cells assessed as increase in neutral red dye uptake at 5 uM preincubated with 1000 uM MPP+ for 30 mins followed by compound treatment for 24 hrs (reference value: 76.2 %); type: functional; conditions: time 24.5 hrs
[26] = test system: SH-SY5Y; assay: Neuroprotective effect in MPP+-induced cytotoxicity in human SH-SY5Y cells assessed as increase in neutral red dye uptake at 1 uM preincubated with 1000 uM MPP+ for 30 mins followed by compound treatment for 24 hrs (reference value: 76.2 %); type: functional; conditions: time 24.5 hrs
[27] = test system: SH-SY5Y; assay: Induction of ROS production in human SH-SY5Y cells at 50 uM incubated for 24 hrs by DCFH-DA probe based analysis relative to control; type: functional
[28] = test system: SH-SY5Y; assay: Neuroprotective effect in Fe3+-induced cytotoxicity in human SH-SY5Y cells assessed as increase in neutral red dye uptake at 2.5 to 5 uM preincubated with 1000 uM FeNTA for 30 mins followed by compound treatment for 24 hrs; type: functional, cell-based; conditions: dose 2.5-5 µM, time 24.5 hrs
[29] = test system: SH-SY5Y; assay: Neuroprotective effect in MPP+-induced cytotoxicity in human SH-SY5Y cells assessed as increase in neutral red dye uptake at 2.5 uM preincubated with 1000 uM MPP+ for 30 mins followed by compound treatment for 24 hrs (reference value: 76.2 %); type: functional; conditions: time 24.5 hrs
[30] = test system: SH-SY5Y; assay: Cytotoxicity against human SH-SY5Y cells assessed as decrease in resazurin dye at 10 uM incubated for 24 hrs relative to control; type: toxicity, cell-based; parameters: scale not given: the % may be the effect or the level left

## O=[N+]([O-])c1cccc(-c2nc(-c3nnnn3Cc3ccccc3)cc3c2[nH]c2ccccc23)c1
[1]
  Activity: inactive
[2]
  Activity: Non-Toxic
[3]
  Activity: Non-Toxic
[4]
  Activity: 92.6%

## c1ccc(Cn2nnnc2-c2cc3c([nH]c4ccccc43)c(-c3ccccc3)n2)cc1
[5]
  Activity: Non-Toxic
[6]
  Activity: 74%
[7]
  Activity: 85.6%
[8]
  Activity: 91.4%
[9]
  Activity: 93.5%
[10]
  Activity: 87.6%
[4]
  Activity: 59.3%
[11]
  Activity: 65.9%
[12]
  Activity: 87.1%
[13]
  Activity: 84.6%
[14]
  Activity: 92.1%
[15]
  Activity: 89.1%
[16]
  Activity: 81.3%

## Clc1ccccc1-c1nc(-c2nnnn2Cc2ccccc2)cc2c1[nH]c1ccccc12
[17]
  Activity: Non-Toxic
[1]
  Activity: Active
[3]
  Activity: Non-Toxic
[11]
  Activity: 81.7%
[16]
  Activity: 84%

## CN(C)c1ccc(-c2nc(-c3nnnn3Cc3ccccc3)cc3c2[nH]c2ccccc23)cc1
[18]
  Activity: 83.6%
[19]
  Activity: 85.8%
[20]
  Activity: 92.3%
[21]
  Activity: 97.8%
[3]
  Activity: Non-Toxic
[22]
  Activity: 90.3%
[11]
  Activity: 80.5%
[23]
  Activity: inactive

## Fc1ccc(-c2nc(-c3nnnn3Cc3ccccc3)cc3c2[nH]c2ccccc23)cc1
[5]
  Activity: Non-Toxic
[24]
  Activity: 91.4%
[25]
  Activity: 83.2%
[26]
  Activity: 84.8%
[6]
  Activity: 62.2%
[27]
  Activity: 108.2%
[7]
  Activity: 83.6%
[28]
  Activity: Active
[4]
  Activity: 48.5%
[11]
  Activity: 56.1%
[29]
  Activity: 83.4%
[30]
  Activity: 80%
[16]
  Activity: 70.5%
